Laboratory results taken from patent US20240299352A1, “COMBINATION THERAPIES WITH SETD2 INHIBITORS” (Epizyme, Inc., priority 2021, published 2024).

Legend:
[1] = system: diffuse large B-cell lymphoma (DLBCL) cell lines; experiment: Pre-treatment model combination study with Cpd. No. 15 (7 days pre-treatment, then combination; Table G), CellTiter-Glo viability, Loewe Volume; conditions: 7 days pre-treatment with Cpd. No. 15, then combination; for Combination effect with Cpd. No. 15 (Loewe Volume class), Farage: cell line Farage (Cat. No. CRL-2630); for Combination effect with Cpd. No. 15 (Loewe Volume class), HT: cell line HT (Cat. No. CRL-2631); for Combination effect with Cpd. No. 15 (Loewe Volume class), OCILY7: cell line OCILY7 (Cat. No. ACC 688); for Combination effect with Cpd. No. 15 (Loewe Volume class), SUDHL4: cell line SUDHL4 (Cat. No. ACC 495); for Combination effect with Cpd. No. 15 (Loewe Volume class), WILL2: cell line WILL2 (Cat. No. ACC 652)
GRANTA519 = experiment: Co-treatment combination study with Cpd. No. 15, CellTiter-Glo viability, Loewe Volume; type: cell-based; conditions: in combination with Cpd. No. 15, seven days, mantle cell lymphoma cell line GRANTA519 (ACC 342)
Experimental: (§1) Mantle cell lymphoma (MCL) and diffuse large B-cell lymphoma (DLBCL) cell line cultures in log-linear growth rate were treated with combinations of Cpd. No. 15 and combination partners according to a co-treatment model. […] No. 15 and the combination partner. […] Each combination was tested in quadruplicate wells. The final concentration of DMSO (vehicle) in the assay was 0.1% v/v. Fifty microliters of cell line suspension were directly dispensed to the assay-ready plates with an automated multichannel dispenser on to 384-well assay-ready plates. Assay plates were incubated for seven days unless otherwise indicated in a humidified atmosphere of 5% CO2 at 37° C. Quantification of the effect of single agents or combinations on cell viability was performed through measurement of cellular adenosine triphosphate (ATP) using a CellTiter-Glo® (Promega, Madison, WI) Luminescent Cell Viability Assay. Luminescence was detected using a SpectraMax M5 microplate reader (Molecular Devices, Sunnyvale, CA). Concentration response plots were generated in GraphPad Prism version 7.0 for Windows, GraphPad Software, (La Jolla, California) and curves fitted to a four-parameter logistic model with variable slope. Percent of inhibition was calculated at each treatment concentration.

JEKO1 = experiment: as above; type: cell-based; conditions: in combination with Cpd. No. 15, seven days, mantle cell lymphoma cell line JEKO1 (CRL-3006)
Experimental: as §1

JVM2 = experiment: as above; type: cell-based; conditions: in combination with Cpd. No. 15, seven days, mantle cell lymphoma cell line JVM2 (CRL-3002)
Experimental: as §1

MAVER1 = experiment: as above; type: cell-based; conditions: in combination with Cpd. No. 15, seven days, mantle cell lymphoma cell line MAVER1 (CRL-3008)
Experimental: as §1

MINO = experiment: as above; type: cell-based; conditions: in combination with Cpd. No. 15, seven days, mantle cell lymphoma cell line MINO (CRL-3000)
Experimental: as §1

REC1 = experiment: as above; type: cell-based; conditions: in combination with Cpd. No. 15, seven days, mantle cell lymphoma cell line REC1 (CRL-3004)
Experimental: as §1

Z138 = experiment: as above; type: cell-based; conditions: in combination with Cpd. No. 15, seven days, mantle cell lymphoma cell line Z138 (CRL-3001)
Experimental: as §1

## NC(=O)c1cccc2cn(-c3ccc([C@@H]4CCCNC4)cc3)nc12 [Niraparib]
[1]
  Combination effect with Cpd. No. 15 (Loewe Volume class), Farage: Synergy (VLoewe>1: synergy)
  Combination effect with Cpd. No. 15 (Loewe Volume class), HT: Synergy (VLoewe>1: synergy)
  Combination effect with Cpd. No. 15 (Loewe Volume class), OCILY7: Additivity (between 1 and −1: additivity)
  Combination effect with Cpd. No. 15 (Loewe Volume class), SUDHL4: Synergy (VLoewe>1: synergy)
  Combination effect with Cpd. No. 15 (Loewe Volume class), WILL2: Synergy (VLoewe>1: synergy)

## COc1cc(Nc2ncc(F)c(Nc3ccc4c(n3)NC(=O)C(C)(C)O4)n2)cc(OC)c1OC [Tamatinib]
[1]
  Combination effect with Cpd. No. 15 (Loewe Volume class), Farage: Synergy (VLoewe>1: synergy)
  Combination effect with Cpd. No. 15 (Loewe Volume class), HT: Additivity (between 1 and −1: additivity)
  Combination effect with Cpd. No. 15 (Loewe Volume class), OCILY7: Additivity (between 1 and −1: additivity)
  Combination effect with Cpd. No. 15 (Loewe Volume class), SUDHL4: Synergy (VLoewe>1: synergy)
  Combination effect with Cpd. No. 15 (Loewe Volume class), WILL2: Additivity (between 1 and −1: additivity)

## C[C@@H]1COCCN1c1cc(C2([S@](C)(=N)=O)CC2)nc(-c2cc[nH]c3nccc2-3)n1 [AZD6738]
[1]
  Combination effect with Cpd. No. 15 (Loewe Volume class), Farage: Synergy (VLoewe>1: synergy)
  Combination effect with Cpd. No. 15 (Loewe Volume class), HT: Additivity (between 1 and −1: additivity)
  Combination effect with Cpd. No. 15 (Loewe Volume class), OCILY7: Additivity (between 1 and −1: additivity)
  Combination effect with Cpd. No. 15 (Loewe Volume class), SUDHL4: Synergy (VLoewe>1: synergy)
  Combination effect with Cpd. No. 15 (Loewe Volume class), WILL2: No Effect

## CC(=O)Nc1cccc(-n2c(=O)n(C3CC3)c(=O)c3c(Nc4ccc(I)cc4F)n(C)c(=O)c(C)c32)c1 [Trametinib]
[1]
  Combination effect with Cpd. No. 15 (Loewe Volume class), Farage: Synergy (VLoewe>1: synergy)
  Combination effect with Cpd. No. 15 (Loewe Volume class), HT: Synergy (VLoewe>1: synergy)
  Combination effect with Cpd. No. 15 (Loewe Volume class), OCILY7: Synergy (VLoewe>1: synergy)
  Combination effect with Cpd. No. 15 (Loewe Volume class), SUDHL4: Synergy (VLoewe>1: synergy)

## COc1c(OCCCN2CCOCC2)ccc2c1N=C(NC(=O)c1cnc(N)nc1)N1CCN=C21 [Copanlisib, copanlisib]
GRANTA519
  Combination effect (Loewe Volume) GRANTA519: Additivity (between 1 and −1: additivity)
JEKO1
  Combination effect (Loewe Volume) JEKO1: Additivity (between 1 and −1: additivity)
JVM2
  Combination effect (Loewe Volume) JVM2: Additivity (between 1 and −1: additivity)
MAVER1
  Combination effect (Loewe Volume) MAVER1: Synergy (VLoewe>1: synergy)
MINO
  Combination effect (Loewe Volume) MINO: Additivity (between 1 and −1: additivity)
REC1
  Combination effect (Loewe Volume) REC1: Additivity (between 1 and −1: additivity)
Z138
  Combination effect (Loewe Volume) Z138: Additivity (between 1 and −1: additivity)

## O=C(c1cc(Cc2n[nH]c(=O)c3ccccc23)ccc1F)N1CCN(C(=O)C2CC2)CC1 [Olaparib]
[1]
  Combination effect with Cpd. No. 15 (Loewe Volume class), Farage: Synergy (VLoewe>1: synergy)
  Combination effect with Cpd. No. 15 (Loewe Volume class), HT: Synergy (VLoewe>1: synergy)
  Combination effect with Cpd. No. 15 (Loewe Volume class), OCILY7: Additivity (between 1 and −1: additivity)
  Combination effect with Cpd. No. 15 (Loewe Volume class), SUDHL4: Synergy (VLoewe>1: synergy)
  Combination effect with Cpd. No. 15 (Loewe Volume class), WILL2: Synergy (VLoewe>1: synergy)

## COc1cccc2c1C(=O)c1c(O)c3c(c(O)c1C2=O)C[C@@](O)(C(=O)CO)C[C@@H]3O[C@H]1C[C@H](N)[C@H](O)[C@H](C)O1 [Doxorubicin (H)]
[1]
  Combination effect with Cpd. No. 15 (Loewe Volume class), Farage: Synergy (VLoewe>1: synergy)
  Combination effect with Cpd. No. 15 (Loewe Volume class), HT: Synergy (VLoewe>1: synergy)
  Combination effect with Cpd. No. 15 (Loewe Volume class), OCILY7: Additivity (between 1 and −1: additivity)
  Combination effect with Cpd. No. 15 (Loewe Volume class), SUDHL4: Synergy (VLoewe>1: synergy)
  Combination effect with Cpd. No. 15 (Loewe Volume class), WILL2: Synergy (VLoewe>1: synergy)

## CN(C)CCCOc1ccc(-c2ccc3ncc4c(c3c2)n(C2CCOCC2)c(=O)n4C)cn1 [AZD0156]
[1]
  Combination effect with Cpd. No. 15 (Loewe Volume class), Farage: Synergy (VLoewe>1: synergy)
  Combination effect with Cpd. No. 15 (Loewe Volume class), HT: Synergy (VLoewe>1: synergy)
  Combination effect with Cpd. No. 15 (Loewe Volume class), OCILY7: Synergy (VLoewe>1: synergy)
  Combination effect with Cpd. No. 15 (Loewe Volume class), SUDHL4: Synergy (VLoewe>1: synergy)
  Combination effect with Cpd. No. 15 (Loewe Volume class), WILL2: No Effect

## CC(=O)c1c(C)c2cnc(Nc3ccc(N4CCNCC4)cn3)nc2n(C2CCCC2)c1=O [Palbociclib, palbociclib]
GRANTA519
  Combination effect (Loewe Volume) GRANTA519: Additivity (between 1 and −1: additivity)
JEKO1
  Combination effect (Loewe Volume) JEKO1: Synergy (VLoewe>1: synergy)
JVM2
  Combination effect (Loewe Volume) JVM2: Additivity (between 1 and −1: additivity)
MAVER1
  Combination effect (Loewe Volume) MAVER1: Synergy (VLoewe>1: synergy)
MINO
  Combination effect (Loewe Volume) MINO: Additivity (between 1 and −1: additivity)
REC1
  Combination effect (Loewe Volume) REC1: Additivity (between 1 and −1: additivity)
Z138
  Combination effect (Loewe Volume) Z138: Additivity (between 1 and −1: additivity)

## NC1(c2ccc(-c3nc4ccn5c(=O)[nH]nc5c4cc3-c3ccccc3)cc2)CCC1 [MK2206]
[1]
  Combination effect with Cpd. No. 15 (Loewe Volume class), Farage: Synergy (VLoewe>1: synergy)
  Combination effect with Cpd. No. 15 (Loewe Volume class), HT: Synergy (VLoewe>1: synergy)
  Combination effect with Cpd. No. 15 (Loewe Volume class), OCILY7: Synergy (VLoewe>1: synergy)
  Combination effect with Cpd. No. 15 (Loewe Volume class), SUDHL4: Synergy (VLoewe>1: synergy)
  Combination effect with Cpd. No. 15 (Loewe Volume class), WILL2: Synergy (VLoewe>1: synergy)

## NC(=O)Nc1cc(-c2cccc(F)c2)sc1C(=O)N[C@H]1CCCNC1 [AZD7762]
[1]
  Combination effect with Cpd. No. 15 (Loewe Volume class), Farage: Synergy (VLoewe>1: synergy)
  Combination effect with Cpd. No. 15 (Loewe Volume class), HT: Additivity (between 1 and −1: additivity)
  Combination effect with Cpd. No. 15 (Loewe Volume class), OCILY7: Additivity (between 1 and −1: additivity)
  Combination effect with Cpd. No. 15 (Loewe Volume class), SUDHL4: Synergy (VLoewe>1: synergy)
  Combination effect with Cpd. No. 15 (Loewe Volume class), WILL2: Additivity (between 1 and −1: additivity)

## CC[C@H](Nc1ncnc2[nH]cnc12)c1nc2cccc(F)c2c(=O)n1-c1ccccc1 [Idelalisib]
[1]
  Combination effect with Cpd. No. 15 (Loewe Volume class), Farage: Synergy (VLoewe>1: synergy)
  Combination effect with Cpd. No. 15 (Loewe Volume class), HT: Synergy (VLoewe>1: synergy)
  Combination effect with Cpd. No. 15 (Loewe Volume class), OCILY7: Additivity (between 1 and −1: additivity)
  Combination effect with Cpd. No. 15 (Loewe Volume class), SUDHL4: Synergy (VLoewe>1: synergy)

## C=CCn1c(=O)c2cnc(Nc3ccc(N4CCN(C)CC4)cc3)nc2n1-c1cccc(C(C)(C)O)n1 [AZD1775]
[1]
  Combination effect with Cpd. No. 15 (Loewe Volume class), Farage: Synergy (VLoewe>1: synergy)
  Combination effect with Cpd. No. 15 (Loewe Volume class), HT: Additivity (between 1 and −1: additivity)
  Combination effect with Cpd. No. 15 (Loewe Volume class), OCILY7: Additivity (between 1 and −1: additivity)
  Combination effect with Cpd. No. 15 (Loewe Volume class), SUDHL4: Synergy (VLoewe>1: synergy)
  Combination effect with Cpd. No. 15 (Loewe Volume class), WILL2: Synergy (VLoewe>1: synergy)
